Measured values reported in article PMC5467912, “Asymmetric regulation of quorum-sensing receptors drives autoinducer-specific gene expression programs in Vibrio cholerae” (PLoS Genetics, 2017).
“And” between values parts separate entries of the source, which are not always exact repeats. Equal entries are not always repeated.

Tests used:
CqsS = target: T1, CqsS (Vibrio cholerae serotype O1, UniProt Q9KM66); test: cell-based; details: for Light production: strain WN1102; for EC50: light production, reporter strain WN1102, 4 h at 30 °C; for RLU: Strain WN1102
T1 construct: endogenous in cells; host or cells: V. cholerae WN1102 (ΔcqsA ΔluxQ/pBB1), derived from C6706str2
T1 sequence (Q9KM66 whole entry, looked up): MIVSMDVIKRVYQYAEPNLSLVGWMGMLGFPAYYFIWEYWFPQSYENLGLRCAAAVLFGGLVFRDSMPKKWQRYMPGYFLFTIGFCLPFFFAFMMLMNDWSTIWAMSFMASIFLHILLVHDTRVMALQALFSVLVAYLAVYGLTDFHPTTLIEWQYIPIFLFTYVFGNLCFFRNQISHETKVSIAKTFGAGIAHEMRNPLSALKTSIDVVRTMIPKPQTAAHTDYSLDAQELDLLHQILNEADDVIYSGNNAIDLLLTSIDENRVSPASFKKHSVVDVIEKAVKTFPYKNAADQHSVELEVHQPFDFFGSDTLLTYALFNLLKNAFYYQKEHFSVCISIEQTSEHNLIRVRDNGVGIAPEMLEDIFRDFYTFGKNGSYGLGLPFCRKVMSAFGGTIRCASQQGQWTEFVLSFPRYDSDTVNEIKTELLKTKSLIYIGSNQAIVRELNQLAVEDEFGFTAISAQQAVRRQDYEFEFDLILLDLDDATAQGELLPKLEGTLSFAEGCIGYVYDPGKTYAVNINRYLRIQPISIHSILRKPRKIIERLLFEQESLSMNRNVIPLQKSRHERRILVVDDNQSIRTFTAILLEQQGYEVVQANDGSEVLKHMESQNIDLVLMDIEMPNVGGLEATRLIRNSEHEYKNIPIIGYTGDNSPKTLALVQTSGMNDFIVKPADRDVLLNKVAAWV

qrr4 = format: cell-based; details: LuxS-CqsA- strain + autoinducer; Rep 1-3

SMILES | Light production (CqsS; Agonist 0.0119209 nM) | Light production (CqsS; Agonist 0.0476837 nM) | Light production (CqsS; Agonist 0.190735 nM) | Light production (CqsS; Agonist 0.762939 nM) | Light production (CqsS; Agonist 3.05176 nM) | Light production (CqsS; Agonist 12.207 nM) | Light production (CqsS; Agonist 48.8281 nM) | Light production (CqsS; Agonist 195.312 nM) | Light production (CqsS; Agonist 781.25 nM) | Light production (CqsS; Agonist 3125 nM) | Light production (CqsS; Agonist 12500 nM) | Light production (CqsS; Agonist 50000 nM) | EC50 (CqsS) [nM] | other results
CCCn1nnnc1NCc1ccc(N(CC)CC)cc1 [#2] | 10481 RLU and 11875 RLU and 20274 RLU | 11765 RLU and 13923 RLU and 13822 RLU | 21584 RLU and 21176 RLU and 18763 RLU | 32000 RLU and 26047 RLU and 22456 RLU | 51860 RLU and 50633 RLU and 45087 RLU | 312292 RLU and 263721 RLU and 253642 RLU | 5147778 RLU and 5005576 RLU and 4962410 RLU | 29151080 RLU and 28675780 RLU and 30844170 RLU | 78218700 RLU and 84853010 RLU and 92706410 RLU | 94808130 RLU and 116685800 RLU and 113209800 RLU | 93694120 RLU and 114540600 RLU and 119989100 RLU | 88291390 RLU and 103481200 RLU and 109394800 RLU | 26 | –
CCCn1nnnc1NCc1ccc(N2CCCC2)cc1 [#3] | – | 13269 RLU and 14460 RLU and 11456 RLU | 18051 RLU and 20632 RLU and 16089 RLU | 27556 RLU and 29263 RLU and 25287 RLU | 53410 RLU and 57320 RLU and 53409 RLU | 598613 RLU and 571778 RLU and 545574 RLU | 17729790 RLU and 16188200 RLU and 18180520 RLU | 52331460 RLU and 53359300 RLU and 52422750 RLU | 72153380 RLU and 70458940 RLU and 74315090 RLU | 80807740 RLU and 76653980 RLU and 72594050 RLU | 69868890 RLU and 66115120 RLU and 65607710 RLU | 41204600 RLU and 38225840 RLU and 37314420 RLU | 14 | fold less potent than compound #1 (CqsS; EC50 comparison): approximately 4 fold
CCCn1nnnc1NCc1ccc(C(C)C)cc1 [#4] | 12293 RLU and 13200 RLU and 7500 RLU | 18202 RLU and 15106 RLU and 14409 RLU | 28023 RLU and 25417 RLU and 23860 RLU | 52174 RLU and 73300 RLU and 48409 RLU | 246211 RLU and 267975 RLU and 261469 RLU | 3790123 RLU and 3428043 RLU and 3340791 RLU | 19838010 RLU and 18010170 RLU and 17447160 RLU | 61742000 RLU and 56850120 RLU and 54681960 RLU | 104719700 RLU and 101045100 RLU and 95346500 RLU | 119868200 RLU and 118607300 RLU and 107846700 RLU | 122328400 RLU and 118368100 RLU and 108047500 RLU | 103497500 RLU and 101746000 RLU and 97356600 RLU | 7 | –
CCn1nnnc1NCc1ccc(C(C)C)cc1 [#5] | 22342 RLU and 16526 RLU and 20189 RLU | 18351 RLU and 14922 RLU and 16393 RLU | 24222 RLU and 32473 RLU and 30802 RLU | 43006 RLU and 46460 RLU and 51236 RLU | 215673 RLU and 187636 RLU and 197250 RLU | 3692444 RLU and 3488605 RLU and 3831864 RLU | 25448660 RLU and 29298250 RLU and 27925710 RLU | 71515280 RLU and 80802780 RLU and 79358510 RLU | 95077870 RLU and 111974800 RLU and 120784000 RLU | 107051300 RLU and 126535100 RLU and 129294500 RLU | 98996430 RLU and 113608500 RLU and 123733600 RLU | 91459320 RLU and 107555000 RLU and 106482900 RLU | 8 | –
c1cc(N2CCCC2)ccc1CNc1nnn[nH]1 [#6] | – | – | – | – | – | – | – | – | – | – | – | – | – | CqsS agonist activity (CqsS; S10 Fig): loses all activity; RLU (CqsS; agonist 0.762939 nM): 2.15E+03 RLU and 2.08E+03 RLU and 4.10E+03 RLU; RLU (CqsS; agonist 12.207 nM): 2.13E+03 RLU and 2.35E+03 RLU and 4.10E+03 RLU; RLU (CqsS; agonist 48.8281 nM): 2.14E+03 RLU and 2.26E+03 RLU and 4.12E+03 RLU; RLU (CqsS; agonist 195.312 nM): 6.45E+03 RLU and 4.19E+03 RLU and 4.17E+03 RLU; RLU (CqsS; agonist 50000 nM): 6.42E+03 RLU and 4.10E+03 RLU and 6.49E+03 RLU
CCC(C)NC(=O)Cc1ccc(-c2ccccc2)cc1 (centres unmarked) [#7] | 14566 RLU and 10667 RLU and 7878.8 RLU | 16089 RLU and 13267 RLU and 10570 RLU | 18864 RLU and 15385 RLU and 12553 RLU | 24094 RLU and 21702 RLU and 17241 RLU | 32638 RLU and 25814 RLU and 24906 RLU | 48047 RLU and 41582 RLU and 31818 RLU | 81242 RLU and 67619 RLU and 51844 RLU | 183313 RLU and 159529 RLU and 160500 RLU | 10770860 RLU and 8237516 RLU and 9173585 RLU | 90855490 RLU and 84011930 RLU and 82291170 RLU | 122744100 RLU and 104793600 RLU and 103467300 RLU | 104239700 RLU and 95731630 RLU and 92148540 RLU | 403 | –
O=C(Cc1ccc(-c2ccccc2)cc1)NC1CCC1 [#8] | 17900 RLU and 10791 RLU and 14350 RLU | 11100 RLU and 15000 RLU and 11881 RLU | 26990 RLU and 16080 RLU and 18824 RLU | 24950 RLU and 23905 RLU | 48627 RLU and 40000 RLU and 32706 RLU | 75176 RLU and 69890 RLU and 67191 RLU | 1115870 RLU and 738497 RLU and 676886 RLU | 40840900 RLU and 39570670 RLU and 37676260 RLU | 91907700 RLU and 100480500 RLU and 102019900 RLU | 92588910 RLU and 118830300 RLU and 113054700 RLU | 89613410 RLU and 99998040 RLU and 103728600 RLU | 78185000 RLU and 81850050 RLU and 75936470 RLU | 53 | –
O=C(Cc1ccc(-c2ccccn2)cc1)NC1CCCC1 [#9] | 8704.7 RLU and 9014.1 RLU and 7722.8 RLU | 11317 RLU and 7830.7 RLU and 9751.2 RLU | 10595 RLU and 11217 RLU and 6363.6 RLU | 13636 RLU and 11364 RLU and 8044.7 RLU | 16879 RLU and 13647 RLU and 11676 RLU | 22994 RLU and 16264 RLU and 15148 RLU | 32335 RLU and 27200 RLU and 23011 RLU | 55190 RLU and 44311 RLU and 39030 RLU | 108075 RLU and 97949 RLU and 93072 RLU | 7362143 RLU and 7832704 RLU and 8085455 RLU | 55377500 RLU and 53818320 RLU and 53583010 RLU | 93123590 RLU and 90629940 RLU and 93211830 RLU | 1720 | –
CCCCCCCCCC(=O)[C@@H](O)CC [CAI] | – | – | – | – | – | – | – | – | – | – | – | – | – | RLU, average per biological replicate (Totals) (qrr4): 2.55E+08 RLU and 2.82E+08 RLU and 3.63E+08 RLU
